Test results published in patent publication US20130035255A1, “CONTROLLED RELEASE HYBRID SYSTEMS” (priority 2010, published 2013).
Where no end group is shown, it is not given here.

Columns and labels:
[1] = biological target: HIV integrase (1-210 aa) and the peptide LYETILILLFLDVDT (SEQ ID NO:7) (Human immunodeficiency virus type 1 group M subtype B, UniProt P04585, G1270S/R1274K); format: cell-based; settings: yeast screening strain
GAL^BD-PRNHR-GAL^AD = GAL^BD-PRNHR-GAL^AD (Homo sapiens, UniProt P06401); format: cell-based, yeast; settings: control strain, FIG. 4
[2] = biological target: GAL4^AD-HIV integrase (1-210 a.a.) and GAL4^BD-PR^LBD-INF5 (Homo sapiens, UniProt P06401); experiment: steroid release two hybrid yeast LacZ assay (CUG fluorescence); format: cell-based; settings: strain expressing integrase fused to GAL4^AD and the interacting peptide
HIV integrase = HIV integrase (Human immunodeficiency virus type 1 group M subtype B, UniProt P04585); experiment: biochemical; format: binding
[3] = biological target: T1, GAL4^AD control (pVT 702, GAL4 activation domain alone); experiment: steroid release yeast two-hybrid, LacZ reporter
T1 construct: also called pADH-GAL^AD base vector
T1 chain: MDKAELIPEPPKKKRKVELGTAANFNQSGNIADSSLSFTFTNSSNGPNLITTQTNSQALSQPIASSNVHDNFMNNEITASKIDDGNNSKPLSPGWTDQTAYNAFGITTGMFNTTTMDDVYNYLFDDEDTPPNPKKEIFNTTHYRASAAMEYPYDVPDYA

Q: For `CC(=O)[C@H]1CC[C@H]2[C@@H]3CCC4=CC(=O)CC[C@]4(C)[C@H]3CC[C@]12C` [progesterone], which signal-to-background ([1]; 8 μM progesterone) is on record?
A: The signal-to-background was ~4.

Q: What about the expression of beta-galactosidase ([1]; FIG. 3 dose response) of the same molecule?
A: Its expression of beta-galactosidase is “stimulated expression of beta-galactosidase”.

Q: And the signal-to-background (GAL^BD-PRNHR-GAL^AD)?
A: Its signal-to-background is ~100.

Q: And the “signal (RFU)” value [2]?
A: The value was “increase in signal”.

Q: How did the Kd (HIV integrase) turn out when “LYETILILLFLDVDT [SEQ ID NO:7, LYETILILLFLDVDT]” was run?
A: The Kd was ~5 µM.

B1: GAL4^BD-PR^LBD-INF5 hybrid protein (GAL4 DNA binding domain fused to the progesterone receptor ligand binding domain and the HIV integrase inhibitory peptide … (other)
chain: MKLLSSIEQACDICRLKKLKCSKEKPKCAKCLKNNWECRYSPKTKRSPLTRAHLTEVESRLERLEQLFLLIFPREDLDMILKMDSLQDIKALLTGLFVQDNVNKDAVTDRLASVETDMPLTLRQHRISATSSSEESSNKGQRQLTVSPVLQYPALTMIQLIPPLINLLMSIEPDVIYAGHDNTKPDTSSSLLTSLNQLGERQLLSVVKWSKSLPGFRNLHIDDQITLIQYSWMSLMVFGLGWRSYKHVSGQMLYFAPDLILNEQRMKESSFYSLCLTMWQIPQEFVKLQVSQEEFLCMKVLLLLNTIPLEGLRSQTQFEEMRSSYIRELIKAIGLRQKGVVSSSQRFYQLTKLLDNLHDLVKQLHLYCLNTFIQSRALSVEFPEMMSEVIAAQLPKILAGMVKPLLFHKALYETILILLFLDVDT
notes: also called GAL4^BD-PR^LBD-IN5
Q: Does B1 bind [3]?
A: Result: no binding
